Experimental data from the supplement of paper PMC11061612.

What was measured:
Test in all cases: combination Emax (second highest fraction inhibited in the dose matrix, 72 h); higher = more inhibition; extreme values may be limits of the assay
[1] = system: ACHN (Kidney Carcinoma)
In short: (§1)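 Cell lines grown in DMEM/F12 or RPMI with 10% FBS were plated in 1536-well plates and held 24 hours at 37°C, 5% CO2 before 72 hours of exposure to two-drug dose matrices, with DMSO typically at 0.2%. CellTiter-Glo 2.0 luminescence gave viability, which was converted to inhibition. Vehicle wells were set to 0 and blank wells to 1. Combination Emax is the second-highest inhibition in the matrix, and Bliss excess is the observed combination effect minus the expected EA + EB − EA·EB, where EA and EB are the single-agent effects.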

[2] = system: AMO-1 (Plasma Cell Myeloma)
In short: as §1

[3] = system: BT-549 (Breast Carcinoma)
In short: as §1

[4] = system: D-263MG (Glioblastoma)
In short: as §1

[5] = system: EFM-19 (Breast Carcinoma)
In short: as §1

[6] = system: EW-24 (Ewing's Sarcoma)
In short: as §1

[7] = system: Hs-766T (Pancreatic Carcinoma)
In short: as §1

[8] = system: KARPAS-299 (T-Cell Non-Hodgkin's Lymphoma)
In short: as §1

[9] = system: KYSE-450 (Esophageal Squamous Cell Carcinoma)
In short: as §1

[10] = system: LU-65 (Non-Small Cell Lung Carcinoma)
In short: as §1

[11] = system: MIA-PaCa-2 (Pancreatic Carcinoma)
In short: as §1

[12] = system: MLMA (Other Blood Carcinomas)
In short: as §1

[13] = system: NCI-H358 (Lung Adenocarcinoma)
In short: as §1

[14] = system: NCI-H727 (Other Solid Carcinomas)
In short: as §1

[15] = system: PANC-04-03 (Pancreatic Carcinoma)
In short: as §1

[16] = system: RF-48 (B-Cell Non-Hodgkin's Lymphoma)
In short: as §1

[17] = system: TGW (Neuroblastoma)
In short: as §1

[18] = system: TK10 (Kidney Carcinoma)
In short: as §1

[19] = system: UACC-62 (Melanoma)
In short: as §1

[20] = system: YH-13 (Glioblastoma)
In short: as §1

Compound | combination Emax [1] | combination Emax [2] | combination Emax [3] | combination Emax [4] | combination Emax [5] | combination Emax [6] | combination Emax [7] | combination Emax [8] | combination Emax [9] | combination Emax [10] | combination Emax [11] | combination Emax [12] | combination Emax [13] | combination Emax [14] | combination Emax [15] | combination Emax [16] | combination Emax [17] | combination Emax [18] | combination Emax [19] | combination Emax [20]
CN(CCO)CC[C@H](CSc1ccccc1)Nc1ccc(S(=O)(=O)NC(=O)c2ccc(N3CCC([C@@H](O)c4ccccc4-c4ccc(Cl)cc4)CC3)cc2)cc1S(=O)(=O)C(F)(F)F [AZD4320] + CCN(CCO)CCCOc1ccc2c(Nc3cc(CC(=O)Nc4cccc(F)c4)[nH]n3)ncnc2c1 [AZD2811] (first compound max 1 µM, 7x7, partner max 1 µM) | 0.207 | 0.291 | 0.432 | 0.653 | 0.932 | 0.865 | 0.171 | 0.191 | 0.153 | 0.432 | 0.512 | 0.228 | 0.269 | 0.512 | 0.138 | 0.881 | 0.928 | 0.439 | 0.201 | 0.704
N#Cc1cnc(Nc2cc(NC[C@H]3CNCCO3)c(C(F)(F)F)cn2)cn1 [SRA737] + Nc1ccn([C@@H]2O[C@H](CO)[C@@H](O)C2(F)F)c(=O)n1 [Gemcitabine] (first compound max 10 µM, 7x7, partner max 0.3 µM) | 0.821 | 0.974 | 0.715 | 0.734 | 0.684 | 0.691 | 0.477 | 0.998 | 0.83 | 0.862 | 0.951 | 0.818 | 0.665 | 0.436 | 0.597 | 0.746 | 0.861 | 0.549 | 0.788 | 0.813
COc1cc2ncnc(Nc3ccc(F)c(Cl)c3)c2cc1OCCCN1CCOCC1 [Gefitinib] + CC(C)n1c(=O)n(C)c2cnc3cc(F)c(-c4ccc(OCCCN5CCCCC5)nc4)cc3c21 [AZD1390] (first compound max 10 µM, 7x7, partner max 0.3 µM) | 0.551 | 0.323 | 0.0893 | 0.132 | 0.158 | 0.189 | 0.181 | 0.14 | 0.338 | 0.268 | 0.208 | 0.33 | 0.536 | 0.157 | 0.347 | 0.244 | 0.0238 | 0.445 | 0.248 | 0.145
CN(CCO)CC[C@H](CSc1ccccc1)Nc1ccc(S(=O)(=O)NC(=O)c2ccc(N3CCC([C@@H](O)c4ccccc4-c4ccc(Cl)cc4)CC3)cc2)cc1S(=O)(=O)C(F)(F)F [AZD4320] + Cn1cnc2c(F)c(Nc3ccc(Br)cc3Cl)c(C(=O)NOCCO)cc21 [Selumetinib] (first compound max 1 µM, 7x7, partner max 3 µM) | 0.346 | 0.418 | 0.327 | 0.237 | 0.753 | 0.892 | 0.57 | 0.307 | 0.386 | 0.753 | 0.61 | 0.496 | 0.564 | 0.973 | 0.406 | 0.951 | 0.97 | 0.402 | 0.868 | 0.511
N#Cc1cnc(Nc2cc(NC[C@H]3CNCCO3)c(C(F)(F)F)cn2)cn1 [SRA737] + C=CCn1c(=O)c2cnc(Nc3ccc(N4CCN(C)CC4)cc3)nc2n1-c1cccc(C(C)(C)O)n1 [AZD1775] (first compound max 10 µM, partner max 1 µM) | 0.865 | 0.967 | 0.804 | 0.575 | 0.413 | 0.639 | 0.512 | 0.966 | 0.906 | 0.887 | 0.911 | 0.826 | 0.763 | 0.667 | 0.543 | 0.467 | 0.922 | 0.653 | 0.304 | 0.812
Cc1cc2ncnn2cc1Nc1ncc2c(n1)n(C1CCOCC1)c(=O)n2C [AZD7648] + C[C@@H]1COCCN1C2=NC(=NC(=C2)C3(CC3)[S@](=N)(=O)C)C4=C5C=CNC5=NC=C4 [AZD6738] (first compound max 10 µM, 7x7, partner max 10 µM) | 0.888 | 0.862 | 0.441 | 0.647 | 0.541 | 0.61 | 0.636 | 0.927 | 0.593 | 0.656 | 0.592 | 0.67 | 0.606 | 0.545 | 0.522 | 0.528 | 0.739 | 0.753 | 0.624 | 0.656
CN(CCO)CC[C@H](CSc1ccccc1)Nc1ccc(S(=O)(=O)NC(=O)c2ccc(N3CCC([C@@H](O)c4ccccc4-c4ccc(Cl)cc4)CC3)cc2)cc1S(=O)(=O)C(F)(F)F [AZD4320] + C[C@@H](Nc1cc(F)cc(F)c1)c1cc(C(=O)N(C)C)cc2c(=O)cc(N3CCOCC3)oc12 [AZD8186] (first compound max 1 µM, 7x7, partner max 3 µM) | 0.252 | 0.244 | 0.456 | 0.38 | 0.82 | 0.921 | 0.469 | 0.247 | 0.33 | 0.483 | 0.444 | 0.701 | 0.394 | 0.378 | 0.257 | 0.959 | 0.968 | 0.54 | 0.67 | 0.694
Cc1cc2ncnn2cc1Nc1ncc2c(n1)n(C1CCOCC1)c(=O)n2C [AZD7648] + CCN(CCO)CCCOc1ccc2c(Nc3cc(CC(=O)Nc4cccc(F)c4)[nH]n3)ncnc2c1 [AZD2811] (first compound max 10 µM, 7x7, partner max 1 µM) | 0.329 | 0.469 | 0.361 | 0.473 | 0.536 | 0.45 | 0.422 | 0.326 | 0.343 | 0.37 | 0.516 | 0.351 | 0.326 | 0.287 | 0.284 | 0.303 | 0.351 | 0.42 | 0.312 | 0.482
C[C@@H](c1ccc2nccn2c1)n1nnc2ncc(-c3cnn(C)c3)nc21 [Savolitinib] + CC1(C)CCC(CN2CCN(c3ccc(C(=O)NS(=O)(=O)c4ccc(NCC5CCOCC5)c([N+](=O)[O-])c4)c(Oc4cnc5[nH]ccc5c4)c3)CC2)=C(c2ccc(Cl)cc2)C1 [Venetoclax] (first compound max 1 µM, 7x7, partner max 1 µM) | 0.127 | 0.326 | 0.113 | 0.158 | 0.182 | 0.172 | 0.252 | 0.169 | 0.0763 | 0.129 | 0.164 | 0.157 | 0.128 | 0.157 | 0.202 | 0.384 | 0.313 | 0.106 | 0.24 | 0.237
COc1cc2c(cc1OCCCCCOc1cc3c(cc1OC)C(=O)N1C=C(C)C[C@H]1C=N3)N=C[C@@H]1CC(C)=CN1C2=O [SG3199] + O=C(c1cc(Cc2n[nH]c(=O)c3ccccc23)ccc1F)N1CCN(C(=O)C2CC2)CC1 [Olaparib] (first compound max 0.001 µM, 7x7, partner max 10 µM) | 0.0891 | 0.0932 | 0.095 | 0.0915 | 0.171 | 0.196 | 0.0914 | 0.0832 | 0.0761 | 0.24 | 0.168 | 0.164 | 0.0868 | 0.24 | 0.114 | 0.266 | 0.166 | 0.0517 | 0.0735 | 0.16
Cc1nc(Nc2ncc(C(=O)Nc3c(C)cccc3Cl)s2)cc(N2CCN(CCO)CC2)n1 [Dasatinib] + CC(=O)Nc1cccc(-n2c(=O)n(C3CC3)c(=O)c3c(Nc4ccc(I)cc4F)n(C)c(=O)c(C)c32)c1 [Trametinib] (first compound max 2 µM, 7x7, partner max 1 µM) | 0.749 | 0.405 | 0.436 | 0.761 | 0.199 | 0.171 | 0.777 | 0.427 | 0.382 | 0.564 | 0.894 | 0.675 | 0.69 | 0.701 | 0.781 | 0.414 | 0.273 | 0.766 | 0.888 | 0.784
N#Cc1cnc(Nc2cc(NC[C@H]3CNCCO3)c(C(F)(F)F)cn2)cn1 [SRA737] + CCc1c2c(nc3ccc(O)cc13)-c1cc3c(c(=O)n1C2)COC(=O)[C@]3(O)CC [SN-38] (first compound max 10 µM, 7x7, partner max 0.3 µM) | 0.893 | 0.967 | 0.75 | 0.823 | 0.689 | 0.768 | 0.631 | 0.999 | 0.94 | 0.906 | 0.942 | 0.77 | 0.8 | 0.609 | 0.57 | 0.769 | 0.714 | 0.682 | 0.664 | 0.832
N#Cc1cnc(Nc2cc(NC[C@H]3CNCCO3)c(C(F)(F)F)cn2)cn1 [SRA737] + O=c1[nH]cc(F)c(=O)[nH]1 [5-Fluorouracil] (first compound max 10 µM, 7x7, partner max 20 µM) | 0.781 | 0.882 | 0.711 | 0.35 | 0.355 | 0.585 | 0.405 | 0.996 | 0.379 | 0.778 | 0.252 | 0.77 | 0.631 | 0.428 | 0.474 | 0.566 | 0.693 | 0.551 | 0.098 | 0.542
